Results from US7589108B2, “1-Heterocyclylalkyl-3-sulfonylindole or -indazole derivatives as 5-hydroxytryptamine-6 ligands” (Wyeth, priority 2002, dated 2009).
Counter-ions that a name gives are not always drawn. Like-named read-outs stand apart in the source and are kept apart here.

What was measured:
[1] = biological target: T1, human cloned 5-HT6 receptors (Homo sapiens, UniProt P50406); experiment: 5-HT6 binding affinity ([3H]-LSD displacement, membranes of Hela cells)
T1 construct: expressed in transfected cells; host or cells: HeLa cells
Experimental: The affinity of test compounds for the serotonin 5-HT6 receptor is evaluated in the following manner. Cultured Hela cells expressing human cloned 5-HT6 receptors are harvested and centrifuged at low speed (1,000×g) for 10.0 min to remove the culture media. The harvested cells are suspended in half volume of fresh physiological phosphate buffered saline solution and recentrifuged at the same speed. This operation is repeated. The collected cells are then homogenized in ten volumes of 50 mM Tris.HCl (pH 7.4) and 0.5 mM EDTA. The homogenate is centrifuged at 40,000×g for 30.0 min and the precipitate is collected. The obtained pellet is resuspended in 10 volumes of Tris.HCl buffer and recentrifuged at the same speed. The final pellet is suspended in a small volume of Tris.HCl buffer and the tissue protein content is determined in aliquots of 10-25 μl volumes. Bovine Serum Albumin is used as the standard in the protein determination according to the method described in Lowry et al., J. Biol. Chem., 193:265 (1951). The volume of the suspended cell membranes is adjusted to give a tissue protein concentration of 1.0 mg/ml of suspension. The prepared membrane suspension (10 times concentrated) is aliquoted in 1.0 ml volumes and stored at −70° C. until used in subsequent binding experiments.
Binding experiments are performed in a 96 well microtiter plate format, in a total volume of 200 μl. […] The test compounds are added in 20.0 μl volume.
The reaction is allowed to proceed in the dark for 120 min at room temperature, at which time, the bound ligand-receptor complex is filtered off on a 96 well unifilter with a Packard Filtermate® 196 Harvester. The bound complex caught on the filter disk is allowed to air dry and the radioactivity is measured in a Packard TopCount® equipped with six photomultiplier detectors, after the addition of 40.0 μl Microscint®-20 scintillant to each shallow well. The unifilter plate is heat-sealed and counted in a PackardTopCount® with a tritium efficiency of 31.0%.
Binding in the presence of varying concentrations of test compound is expressed as a percentage of specific binding in the absence of test compound. The results are plotted as log % bound versus log concentration of test compound. […] A linear regression line of data points is plotted, from which the IC50 value is determined and the Ki value is determined based upon the following equation: Ki=IC50/(1+L/KD) where L is the concentration of the radioactive ligand used and KD is the dissociation constant of the ligand for the receptor, both expressed in nM.

[2] = [3H]-LSD 3.0 nM, Hela cell membranes expressing human cloned 5-HT6 receptors, 120 min at room temperature, read-out: 5-HT6 Binding Ki

T1 sequence (P50406 whole entry): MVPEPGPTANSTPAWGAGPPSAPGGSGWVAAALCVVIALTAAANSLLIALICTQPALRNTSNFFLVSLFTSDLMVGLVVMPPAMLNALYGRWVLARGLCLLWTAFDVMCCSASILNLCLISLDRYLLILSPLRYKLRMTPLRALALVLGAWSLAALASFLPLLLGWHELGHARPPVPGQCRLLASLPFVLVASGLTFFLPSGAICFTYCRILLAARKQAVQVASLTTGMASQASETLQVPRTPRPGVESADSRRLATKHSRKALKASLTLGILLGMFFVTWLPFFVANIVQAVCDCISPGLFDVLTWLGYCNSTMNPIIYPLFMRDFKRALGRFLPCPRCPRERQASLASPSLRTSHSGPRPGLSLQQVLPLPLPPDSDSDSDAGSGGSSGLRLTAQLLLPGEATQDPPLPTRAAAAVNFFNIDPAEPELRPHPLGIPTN

O=S(=O)(c1ccccc1)c1cn(CC2CCNCC2)c2ccccc12 [Example 4, 3-(Phenylsulfonyl)-1-(Piperidin-4-ylmethyl)-1H-indole Hydrochloride]
Ki [1, 2]: 27 nM

O=S(=O)(c1ccccc1)c1cn(C2CCCN(Cc3ccccc3)C2)c2ccccc12 (stereo not drawn) [Example 8, 1-(1-Benzylpiperidin-3-yl)-3-(phenylsulfonyl)-1H-indole]
Ki [1, 2]: 122 nM

O=S(=O)(c1ccccc1)c1cn(C2CCCNC2)c2ccccc12 (stereo not drawn) [Example 9, 3-(Phenylsulfonyl)-1-(piperidin-3-yl)-1H-indole Hydrochloride]
Ki [1, 2]: 13 nM

O=S(=O)(c1ccccc1)c1cn(C2CCN(Cc3ccccc3)CC2)c2ccccc12 [Example 12]
Ki [1]: 49 nM
melting point: 288 to 291 °C

O=S(=O)(c1ccccc1)c1cn(C2CCNCC2)c2ccccc12 [Example 13]
Ki [1, 2]: 91 nM
melting point: 294 to 297 °C

O=S(=O)(c1cccc2ccccc12)c1cn(C2CCCNC2)c2ccccc12 (stereo not drawn) [Example 14]
Ki [1, 2]: 21 nM
melting point: > 180 °C (dec.)

O=S(=O)(c1cn(C2CCCNC2)c2ccccc12)c1cccc2cccnc12 (stereo not drawn) [Example 15]
Ki [1, 2]: 6 nM
melting point: > 195 °C (dec.)

O=S(=O)(c1cccc(Cl)c1)c1cn(C2CCCNC2)c2ccccc12 (stereo not drawn) [Example 17]
Ki [1, 2]: 5 nM
melting point: > 150 °C (dec.)

COc1ccc2c(c1)c(S(=O)(=O)c1cccc(F)c1)cn2C1CCCNC1 (stereo not drawn) [Example 18]
Ki [1, 2]: 11 nM
melting point: 267 to 270 °C

COc1ccc2c(c1)c(S(=O)(=O)c1cccc(F)c1)cn2C1CCCN(C)C1 (stereo not drawn) [Example 19]
Ki [1, 2]: 68 nM
melting point: 262 to 265 °C

O=S(=O)(c1cccc(F)c1)c1cn(C2CCCNC2)c2ccc(F)cc12 (stereo not drawn) [Example 20]
Ki [1, 2]: 4 nM

O=S(=O)(c1cccc(F)c1)c1cn(C2CCCNC2)c2ccc(Cl)cc12 (stereo not drawn) [Example 22]
Ki [1, 2]: 29 nM

CN1CCCC(n2cc(S(=O)(=O)c3cccc(F)c3)c3cc(Cl)ccc32)C1 (stereo not drawn) [Example 23]
Ki [1, 2]: 62 nM
melting point: 242 to 245 °C
